Results taken from PMC7740640 (Xenobiotica; the fate of foreign compounds in biological …, 2020).
Like-named read-outs stand apart in the source and are kept apart here.

Experiments:
CYP2B6 = target: T1, CYP2B6 (Homo sapiens, UniProt P20813); assay: Inhibition of C152 metabolism, SS
T1 sequence (P20813 1-491): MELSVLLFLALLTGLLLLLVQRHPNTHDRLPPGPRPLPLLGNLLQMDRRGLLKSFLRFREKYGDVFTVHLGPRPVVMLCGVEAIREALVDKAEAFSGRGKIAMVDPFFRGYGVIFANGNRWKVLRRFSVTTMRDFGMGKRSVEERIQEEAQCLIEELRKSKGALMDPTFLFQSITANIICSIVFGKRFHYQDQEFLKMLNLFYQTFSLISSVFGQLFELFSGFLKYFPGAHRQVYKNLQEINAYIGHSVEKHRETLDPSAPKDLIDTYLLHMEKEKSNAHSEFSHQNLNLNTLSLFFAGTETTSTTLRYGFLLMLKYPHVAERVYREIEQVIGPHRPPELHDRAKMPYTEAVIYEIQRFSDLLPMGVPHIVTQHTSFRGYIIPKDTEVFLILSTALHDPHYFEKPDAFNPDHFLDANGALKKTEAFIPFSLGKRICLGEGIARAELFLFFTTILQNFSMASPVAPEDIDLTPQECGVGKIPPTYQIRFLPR

CYP3A4 = CYP3A4 (Homo sapiens, UniProt P08684); assay: Inhibition of C152 metabolism, SS
[1] = system: human liver microsomes (HLM); assay: Inhibition of C152 metabolism, HLM; assay type: biochemical; details: 30 μM C152 as substrate
CYP2C19 = CYP2C19 (Homo sapiens, UniProt P33261); assay: Inhibition of C152 metabolism, SS
CYP1A2 = target: T2, CYP1A2 (Homo sapiens, UniProt P05177); assay: C152 metabolism; assay type: in vitro ADME; details: SS(1A2); initial substrate C152 28 μM; scanning fluorimetry
T2 sequence (P05177 2-516 limits assumed): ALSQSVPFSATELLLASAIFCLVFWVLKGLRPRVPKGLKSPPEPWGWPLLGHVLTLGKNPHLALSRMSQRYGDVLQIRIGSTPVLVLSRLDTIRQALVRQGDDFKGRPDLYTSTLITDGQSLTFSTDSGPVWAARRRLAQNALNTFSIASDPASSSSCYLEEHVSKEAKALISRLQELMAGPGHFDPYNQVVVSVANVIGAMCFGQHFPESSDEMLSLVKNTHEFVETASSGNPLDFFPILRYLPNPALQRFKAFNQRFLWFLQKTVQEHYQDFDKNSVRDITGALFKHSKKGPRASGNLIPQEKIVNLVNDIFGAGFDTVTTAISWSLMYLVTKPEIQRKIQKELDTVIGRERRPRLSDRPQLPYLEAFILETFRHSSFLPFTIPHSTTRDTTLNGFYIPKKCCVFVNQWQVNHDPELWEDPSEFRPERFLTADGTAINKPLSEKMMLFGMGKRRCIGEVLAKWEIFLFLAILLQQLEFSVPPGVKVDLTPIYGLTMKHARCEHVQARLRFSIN

[2] = SS(2B6), 30 μM C152 as substrate
[3] = SS(3A4), 30 μM C152 as substrate

Sequence of CYP3A4 (P08684 2-503 limits assumed): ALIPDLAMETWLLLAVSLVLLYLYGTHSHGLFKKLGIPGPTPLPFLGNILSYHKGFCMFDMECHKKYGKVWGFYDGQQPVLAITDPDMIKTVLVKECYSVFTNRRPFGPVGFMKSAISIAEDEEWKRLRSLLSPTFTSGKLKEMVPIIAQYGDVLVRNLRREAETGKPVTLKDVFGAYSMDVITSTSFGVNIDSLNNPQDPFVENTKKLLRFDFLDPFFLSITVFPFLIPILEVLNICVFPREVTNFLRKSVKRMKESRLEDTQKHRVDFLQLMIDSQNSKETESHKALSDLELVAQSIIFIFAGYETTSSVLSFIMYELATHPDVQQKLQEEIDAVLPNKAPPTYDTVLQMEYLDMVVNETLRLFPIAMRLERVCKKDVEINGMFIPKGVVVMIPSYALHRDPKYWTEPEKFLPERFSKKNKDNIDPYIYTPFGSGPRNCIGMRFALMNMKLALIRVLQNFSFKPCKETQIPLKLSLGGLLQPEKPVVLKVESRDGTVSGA
Sequence of CYP2C19 (P33261 whole entry): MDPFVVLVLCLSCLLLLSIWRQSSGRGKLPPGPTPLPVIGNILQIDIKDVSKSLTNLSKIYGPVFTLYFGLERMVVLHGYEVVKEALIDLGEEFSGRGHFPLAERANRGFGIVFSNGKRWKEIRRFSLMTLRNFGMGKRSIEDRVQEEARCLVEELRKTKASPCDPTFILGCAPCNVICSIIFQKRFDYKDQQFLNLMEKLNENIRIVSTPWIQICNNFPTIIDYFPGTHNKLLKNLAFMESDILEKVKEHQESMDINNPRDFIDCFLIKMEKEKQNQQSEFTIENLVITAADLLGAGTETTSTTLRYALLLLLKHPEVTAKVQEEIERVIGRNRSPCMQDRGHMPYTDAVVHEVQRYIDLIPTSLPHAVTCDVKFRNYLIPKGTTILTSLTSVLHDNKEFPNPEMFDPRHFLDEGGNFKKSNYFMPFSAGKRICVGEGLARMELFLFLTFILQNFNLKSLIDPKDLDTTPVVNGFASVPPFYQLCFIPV

SMILES: CC[C@@]1(c2ccccc2)NC(=O)N(Cc2ccccc2)C1=O [BNVL, (S)-(+)-N-3-benzylnirvanol]
- IC50 (CYP2B6; [2]): 8.5 ± 2.3 µM
- Inhibition (maximal amplitude) (CYP2B6; [2]): 81±7%
- IC50 (CYP3A4; [3]): 27 ± 3 µM
- Inhibition (maximal amplitude) (CYP3A4; [3]): 59±10%
- IC50 [1]: 0.51 ± 0.03 µM

SMILES: Clc1ccc(Cc2ccncc2)cc1 [CBP, 4-(4-Chlorobenzyl)pyridine]
- IC50 (CYP2B6): 0.038 ± 0.016 µM
- IC50 (CYP3A4): 225 ± 73 µM
- IC50 (CYP2C19): 215 ± 118 µM
- IC50 [1]: 225 ± 30 µM
- Inhibition (maximal amplitude) [1]: 88±12%

SMILES: Clc1ccccc1C(c1ccccc1)(c1ccccc1)n1ccnc1 [CTZ, clotrimazole]
- IC50 (CYP2C19): 0.2 ± 0.11 µM

SMILES: CNc1ccc2c(C(F)(F)F)cc(=O)oc2c1 [DC152, 7-methylamino-4-trifluoromethyl coumarin]
- maximal level of formation of DC152 (CYP1A2): ~ 4 μM

SMILES: CC(=O)N1CCN(c2ccc(OCC3COC(Cn4ccnc4)(c4ccc(Cl)cc4Cl)O3)cc2)CC1 (stereo not drawn) [KCZ, ketoconazole]
- IC50 (CYP2B6): 9.5 ± 2.8 µM
- IC50 [1]: 1.9 ± 0.2 µM
- Inhibition (maximal amplitude) [1]: 89±7%
